Data taken from patent US9849130B2 (KamTek, Inc., priority 2014, dated 2017).
In brackets after ≈: the same amount, converted by molar mass. Like-named read-outs stand apart in the source and are kept apart here.

How the values were obtained:
Escherichia coli strains = test: MIC by microdilution in Mueller-Hinton broth against Escherichia coli strains; format: cell-based; settings: Escherichia coli, Escherichia coli strain NR 17661; Mueller-Hinton broth; read-out: MIC
CD strains = test: In vitro activity of CFM + additional antimicrobial agent against CD (MIC alone/combination, FIC, ΣFIC); format: cell-based, Clostridium difficile; settings: for MIC: Clostridioides difficile, read-out: MIC alone
Lactobacillus strains = test: MIC against Lactobacillus strains; format: cell-based, Lactobacillus spp.; settings: broth microdilution, BHI with 0.02% Tween 80, pH 6.0, read-out: MIC
[1] = Test 1, CD strain VPI 10463, CFM + VAN
[2] = Test 9, CD strain NR32885, CFM + VAN
[3] = Test 11, CD strain NR32885, CFM + VAN
[4] = Test 12, CD strain NR32885, CFM + MET
[5] = Test 18, CD strain NR32888, CFM + VAN
[6] = Test 19, CD strain NR32888, CFM + MET
[7] = Test 20, CD strain NR32888, CFM + VAN
[8] = Test 21, CD strain NR32888, CFM + MET
[9] = Test 2, CD strain VPI 10463, CFM + VAN
[10] = Test 3, CD strain VPI 10463, CFM + MET
[11] = Test 4, CD strain VPI 10463, CFM + MET
[12] = Test 5, CD strain NR32889, CFM + VAN
[13] = Test 6, CD strain NR32890, CFM + VAN
[14] = Test 7, CD strain NR32885, CFM + VAN
[15] = Test 8, CD strain NR32885, CFM + MET
[16] = Test 10, CD strain NR32885, CFM + MET
[17] = Test 13, CD strain BAA1805 (BI/NAP1/027), CFM + VAN
[18] = Test 14, CD strain BAA1805 (BI/NAP1/027), CFM + MET
[19] = Test 15, CD strain BAA1805 (BI/NAP1/027), CFM + MET
[20] = Test 16, CD strain BAA1805 (BI/NAP1/027), CFM + VAN
[21] = Test 17, CD strain BAA1805 (BI/NAP1/027), CFM + MET

Structure (SMILES): CC(C)N=c1cc2n(-c3ccc(Cl)cc3)c3ccccc3nc-2cc1Nc1ccc(Cl)cc1 [CFM, 3-(p-chloroanilino)-10-(p-chlorophenyl)-2,10-dihydro-2-iso-propyliminophenazine]
- MIC (Escherichia coli strains): > 32 µg/mL
- MIC (CD strains; BAA1805, Test 13, CD strain BAA1805 (BI/NAP1/027), CFM + VAN): 0.25 µg/mL
- MIC (CD strains; BAA1805, Test 14, CD strain BAA1805 (BI/NAP1/027), CFM + MET): 0.25 µg/mL
- MIC (CD strains; BAA1805, Test 15, CD strain BAA1805 (BI/NAP1/027), CFM + MET): 0.25 µg/mL
- MIC (CD strains; BAA1805, Test 16, CD strain BAA1805 (BI/NAP1/027), CFM + VAN): 0.25 µg/mL
- MIC (CD strains; BAA1805, Test 17, CD strain BAA1805 (BI/NAP1/027), CFM + MET): 0.25 µg/mL
- MIC (CD strains; [1]): 0.25 µg/mL
- MIC (CD strains; [2]): 0.25 µg/mL
- MIC (CD strains; [3]): 0.25 µg/mL
- MIC (CD strains; [4]): 0.25 µg/mL
- MIC (CD strains; [5]): 0.25 µg/mL
- MIC (CD strains; [6]): 0.25 µg/mL
- MIC (CD strains; [7]): 0.25 µg/mL
- MIC (CD strains; [8]): 0.25 µg/mL
- MIC (CD strains): 0.125 µg/mL
- FIC (CD strains; [1]): 0.124
- MIC combination (CD strains; [1]): 0.031 µg/mL
- ΣFIC (CD strains; Test 1, CD strain VPI 10463, sum for combination CFM + VAN): 0.374
- FIC (CD strains; [9]): 0.0312
- MIC combination (CD strains; [9]): 0.0039 µg/mL
- ΣFIC (CD strains; Test 2, CD strain VPI 10463, sum for combination CFM + VAN): 0.281
- FIC (CD strains; [10]): 0.5
- MIC alone (CD strains; [10]): 0.125 µg/mL
- MIC combination (CD strains; [10]): 0.062 µg/mL
- ΣFIC (CD strains; Test 3, CD strain VPI 10463, sum for combination CFM + MET): 1
- FIC (CD strains; [11]): 0.5
- MIC alone (CD strains; [11]): 0.125 µg/mL
- MIC combination (CD strains; [11]): 0.062 µg/mL
- ΣFIC (CD strains; Test 4, CD strain VPI 10463, sum for combination CFM + MET): 1
- FIC (CD strains; [12]): 1
- MIC alone (CD strains; [12]): 0.125 µg/mL
- MIC combination (CD strains; [12]): 0.125 µg/mL
- ΣFIC (CD strains; Test 5, CD strain NR32889, sum for combination CFM + VAN): 2
- FIC (CD strains; [13]): 0.25
- MIC alone (CD strains; [13]): 0.125 µg/mL
- MIC combination (CD strains; [13]): 0.031 µg/mL
- ΣFIC (CD strains; Test 6, CD strain NR32890, sum for combination CFM + VAN): 0.75
- FIC (CD strains; [14]): 0.5
- MIC alone (CD strains; [14]): 0.125 µg/mL
- MIC combination (CD strains; [14]): 0.062 µg/mL
- ΣFIC (CD strains; Test 7, CD strain NR32885, sum for combination CFM + VAN): 1
- FIC (CD strains; [15]): 0.25
- MIC alone (CD strains; [15]): 0.125 µg/mL
- MIC combination (CD strains; [15]): 0.031 µg/mL
- ΣFIC (CD strains; Test 8, CD strain NR32885, sum for combination CFM + MET): 0.375
- FIC (CD strains; [2]): 0.25
- MIC combination (CD strains; [2]): 0.062 µg/mL
- ΣFIC (CD strains; Test 9, CD strain NR32885, sum for combination CFM + VAN): 0.5
- FIC (CD strains; [16]): 0.031
- MIC alone (CD strains; [16]): 0.125 µg/mL
- MIC combination (CD strains; [16]): 0.0039 µg/mL
- ΣFIC (CD strains; Test 10, CD strain NR32885, sum for combination CFM + MET): 0.281
- FIC (CD strains; [3]): 0.25
- MIC combination (CD strains; [3]): 0.062 µg/mL
- ΣFIC (CD strains; Test 11, CD strain NR32885, sum for combination CFM + VAN): 0.5
- FIC (CD strains; [4]): 0.031
- MIC combination (CD strains; [4]): 0.0078 µg/mL
- ΣFIC (CD strains; Test 12, CD strain NR32885, sum for combination CFM + MET): 0.281
- FIC (CD strains; [17]): 0.25
- MIC combination (CD strains; [17]): 0.062 µg/mL
- ΣFIC (CD strains; Test 13, CD strain BAA1805 (BI/NAP1/027), sum for combination CFM + VAN): 0.312
- FIC (CD strains; [18]): 0.015
- MIC combination (CD strains; [18]): 0.0039 µg/mL
- ΣFIC (CD strains; Test 14, CD strain BAA1805 (BI/NAP1/027), sum for combination CFM + MET): 0.031
- FIC (CD strains; [19]): 0.06
- MIC combination (CD strains; [19]): 0.015 µg/mL
- ΣFIC (CD strains; Test 15, CD strain BAA1805 (BI/NAP1/027), sum for combination CFM + MET): 0.185
- FIC (CD strains; [20]): 0.25
- MIC combination (CD strains; [20]): 0.062 µg/mL
- ΣFIC (CD strains; Test 16, CD strain BAA1805 (BI/NAP1/027), sum for combination CFM + VAN): 0.5
- FIC (CD strains; [21]): 0.031
- MIC combination (CD strains; [21]): 0.0078 µg/mL
- ΣFIC (CD strains; Test 17, CD strain BAA1805 (BI/NAP1/027), sum for combination CFM + MET): 0.156
- FIC (CD strains; [5]): 0.5
- MIC combination (CD strains; [5]): 0.125 µg/mL
- ΣFIC (CD strains; Test 18, CD strain NR32888, sum for combination CFM + VAN): 1
- FIC (CD strains; [6]): 0.062
- MIC combination (CD strains; [6]): 0.015 µg/mL
- ΣFIC (CD strains; Test 19, CD strain NR32888, sum for combination CFM + MET): 0.125
- FIC (CD strains; [7]): 0.25
- MIC combination (CD strains; [7]): 0.062 µg/mL
- ΣFIC (CD strains; Test 20, CD strain NR32888, sum for combination CFM + VAN): 0.75
- FIC (CD strains; [8]): 0.031
- MIC combination (CD strains; [8]): 0.0078 µg/mL
- ΣFIC (CD strains; Test 21, CD strain NR32888, sum for combination CFM + MET): 0.28
- MIC (Lactobacillus strains; Lactobacillus, pH 6, Lactobacillus jhonsonii HM-643): > 32 µg/mL
- MIC (Lactobacillus strains; Lactobacillus, pH 6, Lactobacillus sp. HM-228): 1 µg/mL (≈ 2.11 µM)
- MIC (Lactobacillus strains; Lactobacillus, pH 6, Lactobacillus sp. HM-478): > 32 µg/mL
- MIC (Lactobacillus strains; pH 6, Lactobacillus crispatus HM-637): 4 µg/mL (≈ 8.45 µM)
- MIC (Lactobacillus strains; pH 6, Lactobacillus gasseri HM-104): > 32 µg/mL
- MIC (Lactobacillus strains; pH 6, Lactobacillus iners HM-126): 2 µg/mL (≈ 4.22 µM)
- MIC (Lactobacillus strains; pH 6, Lactobacillus jensenii HM-105): > 32 µg/mL
- MIC (Lactobacillus strains; pH 6, Lactobacillus reuteri HM-102): > 32 µg/mL
- MIC (Lactobacillus strains; pH 6, Lactobacillus rhamnosus HM-106): > 32 µg/mL
- MIC (Lactobacillus strains; pH 6, Lactobacillus vaginalis HM-405): 2 µg/mL (≈ 4.22 µM)
